The record followed here is patent publication US9561228B2 (Celgene Avilomics Research, Inc., priority 2013, dated 2017).

Each structure is given as a SMILES string.

The test system of test [1] is ERK1/2 phosphorylation of p90RSK in HT29 cells. As to the kind of experiment: pRSK MSD Assay in HT29 cells. It is filed as cell-based. To be noted: Homo sapiens, HT-29, read-out: ERK1/ERK2 PRSK MSD HT29 EC50. The method in brief: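 Serum-starved HT29 cells (0.1% FBS overnight) treated with test compound for 120 min at 37° C, then lysed with protease and phosphatase inhibitors. Phospho-p90RSK quantified by MSD sandwich immunoassay: RSK capture antibody, phospho-RSK detection antibody plus Sulfo-tagged antibody, electrochemiluminescence read.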

Test [2] deals with HT-29 cells (colorectal adenocarcinoma). Briefly: Inhibition of cancer cell proliferation, HT-29 (CellTiterGlo, 72 hours). To be noted: Homo sapiens. It is filed as cell-based. Here is the method: Measurement of Inhibition of Cancer Cell Proliferation (HT-29/Colorectal Adenocarcinoma)
The following protocol used an HT-29 cell line, which cell line is a model for colorectal adenocarcinoma. HT-29 cells were split and 3000 cells in 100 μl of growth medium were added per well of a flat-bottom 96-well plate. A two-fold test compound solution in serum-free RPM1640 was made, starting at 5,000 nM. Then, 3-fold serial dilutions were made across the plate from well 1 to well 11. Well 12, the last well in a row on the plate, was left as untreated control. 100 μl compound solutions were then transferred to the wells, so the total volume of media was 200 μl per well. Plates were returned to a 37° C. incubator, and the cells were cultured for 72 hours. To measure cell proliferation after 72 hours, media was discarded from the plates, 50 μl/well of fresh medium was added, and 50 μl CellTiterGlo solution was added (Promega Cat#G7573). The plate was covered with a dark lid and incubated for 10 min. A white sealing tape was applied to the bottom of the plate, and the plate was read in a luminescence plate reader. […] A 2-fold serial dilution was used to generate 8 cell densities from 50,000-390 cells per well in 50 μl media. 50 μl CellTiterGlo was added per well, and the plate was read in a luminescence plate reader after 10 min. The reading was plotted vs. cell number to generate a standard curve and the equation of the curve fit. The compound-treated sample luminescence readings were converted to cell numbers using the curve-fit equation. The percent of inhibition, using untreated control as 100% growth, was then calculated. GI50 was then calculated by GraphPad Prism.
Background: Cellular ATP, detected with luciferase, serves as a proxy for viable cell number.

The next test addresses T1, MEK1 activated ERK1 (Homo sapiens, UniProt P27361).
T1 construct: purchased Millipore (Billerica, Mass.) 14-439-K
Briefly: Omnia continuous-read kinase assay for potency against MEK1 activated ERK1. It is filed as biochemical. To be noted: MEK1 activated ERK1, ATP at KM; read-out: ERK1 Omnia WT ATP KM IC50. The method in brief:
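Apparent IC50 came from initial reaction slopes (RFU vs time) plotted against log inhibitor with a variable-slope fit. Reactions were started with ERK1 (4 nM final) added to 50 μM ATP, roughly at its appKM, and 10 μM Sox-conjugated ST17 peptide in 20 mM Tris pH 7.5, 5 mM MgCl2. Fluorescence was monitored every 71 seconds.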

T1 sequence (P27361 whole entry): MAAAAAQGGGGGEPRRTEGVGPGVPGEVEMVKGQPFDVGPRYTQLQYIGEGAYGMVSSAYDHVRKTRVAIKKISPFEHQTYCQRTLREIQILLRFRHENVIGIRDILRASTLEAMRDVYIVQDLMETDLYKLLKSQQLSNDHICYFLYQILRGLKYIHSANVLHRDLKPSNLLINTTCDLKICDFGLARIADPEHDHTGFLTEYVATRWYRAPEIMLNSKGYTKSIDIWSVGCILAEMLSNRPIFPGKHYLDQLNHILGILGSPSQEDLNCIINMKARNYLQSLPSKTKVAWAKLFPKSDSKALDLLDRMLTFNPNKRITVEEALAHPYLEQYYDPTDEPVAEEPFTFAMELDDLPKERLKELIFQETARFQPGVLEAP

The GI50 is the concentration that inhibits growth by half. A word on the IC50: it is the concentration needed to halve the response being measured. Regarding `C=CC(=O)Nc1cc(F)ccc1Nc1nc(N[C@@H]2CCC[C@H](C(N)=O)C2)ncc1Cl` (racemic) [Compound I-112, Rac-cis-3-((4-((2-acrylamido-4-fluorophenyl)amino)-5-chloropyrimidin-2-yl)amino)cyclohexanecarboxamide], the EC50 in test [1] is below 100 nM. Besides, the GI50 in test [2] fell in the range of 101 to 500 nM. Moreover, the IC50 on MEK1 activated ERK1 was below 100 nM.

Turning to `C=CC(=O)Nc1ccccc1Nc1nc(NC2CCN(C=O)CC2)ncc1C(F)(F)F` [Compound I-11, N-(2-((2-((1-formylpiperidin-4-yl)amino)-5-(trifluoromethyl)pyrimidin-4-yl)amino)phenyl)acrylamide], in test [1], the EC50 lay within 101 to 500 nM. The same compound came in with a GI50 in test [2] of 101 to 500 nM. Also, the IC50 on MEK1 activated ERK1 lay within 101 to 500 nM.

As to `C=CC(=O)Nc1ccccc1Nc1nc(NC2CCN(C(C)=O)CC2)ncc1C(F)(F)F` [Compound I-12, N-(2-((2-((1-acetylpiperidin-4-yl)amino)-5-(trifluoromethyl)pyrimidin-4-yl)amino)phenyl)acrylamide], the EC50 in test [1] lay within 101 to 500 nM. The compound further showed a GI50 in test [2] of 101 to 500 nM. In addition, at MEK1 activated ERK1, the IC50 is 101 to 500 nM.

`C=CC(=O)Nc1ccccc1Nc1nc(Nc2cc(C(=O)NOCCO)ccc2OC)ncc1C(F)(F)F` [Compound I-74, 3-((4-((2-Acrylamidophenyl)amino)-5-(trifluoromethyl)pyrimidin-2-yl)amino)-N-(2-hydroxyethoxy)-4-methoxybenzamide]: the EC50 in test [1] was 501 to 999 nM. The GI50 in test [2] was in the range of 101 to 500 nM. Besides, the IC50 on MEK1 activated ERK1 was 101 to 500 nM.

For `C=CC(=O)Nc1ccccc1Nc1nc(NC2CCN(C(C)=O)CC2)ncc1Cl` [Compound I-116, N-(2-((2-((1-acetylpiperidin-4-yl)amino)-5-chloropyrimidin-4-yl)amino)phenyl)acrylamide], in test [1], the EC50 is 101 to 500 nM. In test [2], the GI50 was 101 to 500 nM. For the same compound, on MEK1 activated ERK1, the IC50 was 101 to 500 nM.

For the compound `C=CC(=O)Nc1ccccc1Nc1nc(NC2CCN(S(C)(=O)=O)CC2)ncc1Cl` [Compound I-117, N-(2-((5-chloro-2-((1-(methylsulfonyl)piperidin-4-yl)amino)pyrimidin-4-yl)amino)phenyl)acrylamide], the EC50 in test [1] lay in the range of 101 to 500 nM. The GI50 in test [2] lay in the range of 101 to 500 nM. Moreover, at MEK1 activated ERK1, the IC50 fell in the range of 101 to 500 nM.

On to `C=CC(=O)Nc1ccccc1Nc1nc(N[C@H]2CCCN(C=O)C2)ncc1Cl` [Compound I-122, (S)—N-(2-((5-chloro-2-((1-formylpiperidin-3-yl)amino)pyrimidin-4-yl)amino)phenyl)acrylamide], for which the EC50 in test [1] is below 100 nM. The GI50 in test [2] lay in the range of 101 to 500 nM. The IC50 at MEK1 activated ERK1 is below 100 nM.

As to `C=CC(=O)Nc1ccccc1Nc1nc(N[C@H]2CCCNC2)ncc1Cl` [Compound I-126, (S)—N-(2-((5-chloro-2-(piperidin-3-ylamino)pyrimidin-4-yl)amino)phenyl)acrylamide], the EC50 in test [1] was in the range of 501 to 999 nM. Also, the GI50 in test [2] is 501 to 999 nM. Besides, at MEK1 activated ERK1, the IC50 fell in the range of 101 to 500 nM.

As to `C=CC(=O)Nc1ccccc1Nc1nc(NC2CCC(F)(F)CC2)ncc1Cl` [Compound I-127, N-(2-((5-chloro-2-((4,4-difluorocyclohexyl)amino)pyrimidin-4-yl)amino)phenyl)acrylamide], the EC50 in test [1] lay in the range of 101 to 500 nM. The compound also displayed a GI50 in test [2] of 101 to 500 nM. Besides, the IC50 at MEK1 activated ERK1 lay in the range of 101 to 500 nM.

As to `C=CC(=O)Nc1ccccc1Nc1nc(Nc2ccc(N(CC)C(C)=O)cc2OC)ncc1Cl` [Compound I-155, N-(2-((5-chloro-2-((4-(N-ethylacetamido)-2-methoxyphenyl)amino)pyrimidin-4-yl)amino)phenyl)acrylamide], the EC50 in test [1] is above 1000 nM. This compound displayed a GI50 in test [2] above 1000 nM. Moreover, the IC50 on MEK1 activated ERK1 fell in the range of 101 to 500 nM.

For the compound `C=CC(=O)Nc1cc(OC)ccc1Nc1nc(Nc2ccc(N3CCCN(C(=O)OC(C)(C)C)CC3)cc2C#N)ncc1Cl` [Compound I-156, tert-butyl 4-(4-((4-((2-acrylamido-4-methoxyphenyl)amino)-5-chloropyrimidin-2-yl)amino)-3-cyanophenyl)-1,4-diazepane-1-carboxylate], in test [1], the EC50 was 501 to 999 nM. Besides, the GI50 in test [2] is above 1000 nM. The IC50 at MEK1 activated ERK1 lay within 101 to 500 nM.

For the compound `C=CC(=O)Nc1cc(OC)ccc1Nc1nc(Nc2ccc(N(CC)C(C)=O)cc2C#N)ncc1Cl` [Compound I-164, N-(2-((5-chloro-2-((2-cyano-4-(N-ethylacetamido)phenyl)amino)pyrimidin-4-yl)amino)-5-methoxyphenyl)acrylamide], in test [1], the EC50 was above 1000 nM. This compound displayed a 50% growth inhibitory concentration (GI50) in test [2] above 1000 nM. Moreover, the IC50 on MEK1 activated ERK1 fell in the range of 101 to 500 nM.

Take `C=CC(=O)Nc1cc(OC)ccc1Nc1nc(Nc2ccc3c(c2)CC(=O)N3CC)ncc1Cl` [Compound I-166, N-(2-((5-chloro-2-((1-ethyl-2-oxoindolin-5-yl)amino)pyrimidin-4-yl)amino)-5-methoxyphenyl)acrylamide]: in test [1], the EC50 was in the range of 101 to 500 nM. For the same compound, the GI50 in test [2] was in the range of 101 to 500 nM. Besides, the IC50 on MEK1 activated ERK1 is 101 to 500 nM.

As for `C=CC(=O)Nc1ccccc1Nc1nc(Nc2ccc(N(CCCN)C(C)=O)cc2OC)ncc1Cl` [Compound I-167, N-(2-((2-((4-(N-(3-aminopropyl)acetamido)-2-methoxyphenyl)amino)-5-chloropyrimidin-4-yl)amino)phenyl)acrylamide], in test [1], the EC50 was above 1000 nM. The compound also returned a GI50 in test [2] above 1000 nM. For the same compound, on MEK1 activated ERK1, the IC50 is 101 to 500 nM.

Turning to `C=CC(=O)Nc1ccccc1Nc1nc(Nc2ccc(N(CCN)C(C)=O)cc2OC)ncc1Cl` [Compound I-168, N-(2-((2-((4-(N-(2-aminoethyl)acetamido)-2-methoxyphenyl)amino)-5-chloropyrimidin-4-yl)amino)phenyl)acrylamide], in test [1], the EC50 was above 1000 nM. Moreover, the GI50 in test [2] was above 1000 nM. Moreover, the IC50 on MEK1 activated ERK1 lay in the range of 101 to 500 nM.

Take `C=CC(=O)Nc1ccccc1Nc1nc(Nc2ccc(N3CCC[C@@H]3C(N)=O)cc2C#N)ncc1Cl` [Compound I-179, (R)-1-(4-((4-((2-acrylamidophenyl)amino)-5-chloropyrimidin-2-yl)amino)-3-cyanophenyl)pyrrolidine-2-carboxamide]: the EC50 in test [1] was in the range of 501 to 999 nM. Moreover, in test [2], the GI50 was above 1000 nM. Moreover, the IC50 on MEK1 activated ERK1 lay in the range of 101 to 500 nM.

With `C=CC(=O)Nc1ccccc1Nc1nc(Nc2ccc(NC(=O)COC(C)=O)cc2OC)ncc1Cl` [Compound I-183, 2-((4-((4-((2-acrylamidophenyl)amino)-5-chloropyrimidin-2-yl)amino)-3-methoxyphenyl)amino)-2-oxoethyl acetate], the EC50 in test [1] was in the range of 501 to 999 nM. The compound further registered a GI50 in test [2] above 1000 nM. For the same compound, the IC50 at MEK1 activated ERK1 fell in the range of 101 to 500 nM.

For the compound `C=CC(=O)Nc1ccccc1Nc1nc(Nc2ccc(NS(C)(=O)=O)cc2OC)ncc1Cl` [Compound I-185, N-(2-((5-chloro-2-((2-methoxy-4-(methylsulfonamido)phenyl)amino)pyrimidin-4-yl)amino)phenyl)acrylamide], the EC50 in test [1] was 101 to 500 nM. Besides, the GI50 in test [2] is 501 to 999 nM. Moreover, at MEK1 activated ERK1, the IC50 was in the range of 101 to 500 nM.

On to `C=CC(=O)Nc1ccccc1Nc1nc(Nc2ccc(NC(=O)CO)cc2OC)ncc1Cl` [Compound I-186, N-(2-((5-chloro-2-((4-(2-hydroxyacetamido)-2-methoxyphenyl)amino)pyrimidin-4-yl)amino)phenyl)acrylamide], for which the EC50 in test [1] was 501 to 999 nM. Further, in test [2], the GI50 was above 1000 nM. At MEK1 activated ERK1, the IC50 was in the range of 101 to 500 nM.

With `C=CC(=O)Nc1ccccc1Nc1nc(Nc2ccc(F)cc2C)ncc1Cl` [Compound I-209, N-(2-((5-chloro-2-((4-fluoro-2-methylphenyl)amino)pyrimidin-4-yl)amino)phenyl)acrylamide], in test [1], the EC50 lay within 101 to 500 nM. In test [2], this compound had a 50% growth inhibitory concentration (GI50) of 501 to 999 nM. Moreover, the IC50 on MEK1 activated ERK1 was 101 to 500 nM.

For the compound `C=CC(=O)Nc1ccccc1Nc1nc(Nc2cc(C(N)=O)ccc2C)ncc1C` [Compound I-224, 3-(4-(2-acrylamidophenylamino)-5-methylpyrimidin-2-ylamino)-4-methyl benzamide], the EC50 in test [1] fell in the range of 101 to 500 nM. Moreover, the GI50 in test [2] was in the range of 101 to 500 nM. In addition, the IC50 on MEK1 activated ERK1 was in the range of 101 to 500 nM.

Regarding `C=CC(=O)Nc1ccccc1Oc1nc(Nc2ccc(N3CCC[C@@H]3CO)cc2OC)ncc1C(N)=O` [Compound I-263, (R)-4-(2-acrylamidophenoxy)-2-((4-(2-(hydroxymethyl)pyrrolidin-1-yl)-2-methoxyphenyl)amino)pyrimidine-5-carboxamide], the EC50 in test [1] was above 1000 nM. The GI50 in test [2] was above 1000 nM. Further, the 50% inhibitory concentration (IC50) at MEK1 activated ERK1 was 101 to 500 nM.
